Measurements taken from US20260217701A1, “SELECTIVE BET INHIBITORS AND USES THEREOF” (Tay Therapeutics Limited, priority 2022, published 2026).
Where “and” joins values, the source holds several entries; their conditions need not be identical. Identical values can stand only once.

Tested on: imiquimod-induced psoriasis
Assay: Imiquimod-induced psoriasis model
Assay type: in vivo, mice
Design: Spleen Weight / Spleen Weight Ratio: unit not given here
Details: for Mean scores of the presence of erythema on the skin of animals at the area of induction of psoriasis / Mean scores of the presence of induration on the skin of animals at the area of induction of psoriasis / Mean scores of the presence of peeling on the skin of animals at the area of induction of psoriasis: mean ± SEM
Method in brief: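 Mice given topical imiquimod (5% cream) daily on depilated backs Days 1–14; Compound A in 5% DMSO/40% PEG-400/55% saline from Day 8, clobetasol topical as reference. Daily PASI (erythema, induration, peeling, each 0–4, summed) Days 8–15; spleen weight, open-field behaviour, serum IL-1B, IL-6, IL-17, TNF-α, IL-22, IL-23 at Day 15.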

[1] = IMI + 1 mg/kg, D8 (before start of treatment)
[2] = IMI + 3 mg/kg, D8 (before start of treatment)
[3] = IMI + 10 mg/kg, D8 (before start of treatment)

With `COCCn1cc(-c2ccccc2)c(-c2cn(C)c(=O)c3[nH]c(-c4cnn(C(F)(F)F)c4)cc23)cc1=O` [Compound B, 4-(1-(2-methoxyethyl)-2-oxo-5-phenyl-1,2-dihydropyridin-4-yl)-6-methyl-2-(1-(trifluoromethyl)-1H-pyrazol-4-yl)-1,6-dihydro-7H-pyrrolo[2,3-c]pyridin-7-one] the “Spleen Weight Ratio” value (IMI-psoriasis model, mice, 10 mg/kg, individual animals) was 1026.10 and 1000.89 and 999.24 and 691.05 and 654.43 and 926.75 and 782.83 and 888.53, the Spleen Weight Ratio (day 15, 1, 3, 10 mg/kg) was “dose-dependent decrease” and the “efficacy on the treatment of psoriasis” value (highest tested dose of 10 mg/kg) was “very good efficacy”. For the same compound, the “Mean scores of the presence of erythema on the skin of animals at the area of induction of psoriasis” value (“Mean scores of the presence of erythema” below) [1] was 2.1 ± 0.1, the “Mean scores of the presence of induration on the skin of animals at the area of induction of psoriasis” value [1] was 2.5 ± 0.2 and the “Mean scores of the presence of peeling on the skin of animals at the area of induction of psoriasis” value (shortened to “Mean scores of the presence of peeling”) [1] was 2.1 ± 0.1. The “Mean scores of the presence of erythema” value (IMI + 1 mg/kg, D9) was 1.8 ± 0.2, the “Mean scores of the presence of induration on the skin of animals at the area of induction of psoriasis” value (IMI + 1 mg/kg, D9) was 2.5 ± 0.2 and the “Mean scores of the presence of peeling” value (IMI + 1 mg/kg, D9) was 2.5 ± 0.3. The “Mean scores of the presence of erythema” value (IMI + 1 mg/kg, D10) was 1.8 ± 0.2, the “Mean scores of the presence of induration on the skin of animals at the area of induction of psoriasis” value (IMI + 1 mg/kg, D10) was 2.3 ± 0.2 and the “Mean scores of the presence of peeling” value (IMI + 1 mg/kg, D10) was 2.0 ± 0.2. The “Mean scores of the presence of erythema” value (IMI + 1 mg/kg, D11) was 2.3 ± 0.2, the “Mean scores of the presence of induration on the skin of animals at the area of induction of psoriasis” value (IMI + 1 mg/kg, D11) was 2.3 ± 0.3 and the “Mean scores of the presence of peeling” value (IMI + 1 mg/kg, D11) was 2.0 ± 0.1. The “Mean scores of the presence of erythema” value (IMI + 1 mg/kg, D12) was 1.8 ± 0.2, the “Mean scores of the presence of induration on the skin of animals at the area of induction of psoriasis” value (IMI + 1 mg/kg, D12) was 2.0 ± 0.0 and the “Mean scores of the presence of peeling” value (IMI + 1 mg/kg, D12) was 1.9 ± 0.1. For the same compound, the “Mean scores of the presence of erythema” value (IMI + 1 mg/kg, D13) was 1.5 ± 0.3, the “Mean scores of the presence of induration on the skin of animals at the area of induction of psoriasis” value (IMI + 1 mg/kg, D13) was 2.0 ± 0.0 and the “Mean scores of the presence of peeling” value (IMI + 1 mg/kg, D13) was 2.0 ± 0.3. For the same compound, the “Mean scores of the presence of erythema” value (IMI + 1 mg/kg, D14) was 1.8 ± 0.3, the “Mean scores of the presence of induration on the skin of animals at the area of induction of psoriasis” value (IMI + 1 mg/kg, D14) was 2.0 ± 0.0 and the “Mean scores of the presence of peeling” value (IMI + 1 mg/kg, D14) was 1.9 ± 0.2. For the same compound, the “Mean scores of the presence of erythema” value (IMI + 1 mg/kg, D15) was 1.5 ± 0.2, the “Mean scores of the presence of induration on the skin of animals at the area of induction of psoriasis” value (IMI + 1 mg/kg, D15) was 1.9 ± 0.1 and the “Mean scores of the presence of peeling” value (IMI + 1 mg/kg, D15) was 1.8 ± 0.3. The “Mean scores of the presence of erythema” value [2] was 2.4 ± 0.2, the “Mean scores of the presence of induration on the skin of animals at the area of induction of psoriasis” value [2] was 2.6 ± 0.2 and the “Mean scores of the presence of peeling” value [2] was 2.6 ± 0.3. The “Mean scores of the presence of erythema” value (IMI + 3 mg/kg, D9) was 1.9 ± 0.3, the “Mean scores of the presence of induration on the skin of animals at the area of induction of psoriasis” value (IMI + 3 mg/kg, D9) was 2.0 ± 0.0 and the “Mean scores of the presence of peeling” value (IMI + 3 mg/kg, D9) was 2.1 ± 0.0. For the same compound, the “Mean scores of the presence of erythema” value (IMI + 3 mg/kg, D10) was 1.6 ± 0.2, the “Mean scores of the presence of induration on the skin of animals at the area of induction of psoriasis” value (IMI + 3 mg/kg, D10) was 2.1 ± 0.1 and the “Mean scores of the presence of peeling” value (IMI + 3 mg/kg, D10) was 2.0 ± 0.2. For the same compound, the “Mean scores of the presence of erythema” value (IMI + 3 mg/kg, D11) was 1.9 ± 0.2, the “Mean scores of the presence of induration on the skin of animals at the area of induction of psoriasis” value (IMI + 3 mg/kg, D11) was 1.7 ± 0.2 and the “Mean scores of the presence of peeling” value (IMI + 3 mg/kg, D11) was 1.9 ± 0.1. For the same compound, the “Mean scores of the presence of erythema” value (IMI + 3 mg/kg, D12) was 1.9 ± 0.1, the “Mean scores of the presence of induration on the skin of animals at the area of induction of psoriasis” value (IMI + 3 mg/kg, D12) was 1.9 ± 0.1 and the “Mean scores of the presence of peeling” value (IMI + 3 mg/kg, D12) was 1.6 ± 0.2. The “Mean scores of the presence of erythema” value (IMI + 3 mg/kg, D13) was 1.5 ± 0.2, the “Mean scores of the presence of induration on the skin of animals at the area of induction of psoriasis” value (IMI + 3 mg/kg, D13) was 1.9 ± 0.1 and the “Mean scores of the presence of peeling” value (IMI + 3 mg/kg, D13) was 1.6 ± 0.2. For the same compound, the “Mean scores of the presence of erythema” value (IMI + 3 mg/kg, D14) was 1.3 ± 0.2, the “Mean scores of the presence of induration on the skin of animals at the area of induction of psoriasis” value (IMI + 3 mg/kg, D14) was 1.9 ± 0.1 and the “Mean scores of the presence of peeling” value (IMI + 3 mg/kg, D14) was 1.5 ± 0.1. The “Mean scores of the presence of erythema” value (IMI + 3 mg/kg, D15) was 0.9 ± 0.2, the “Mean scores of the presence of induration on the skin of animals at the area of induction of psoriasis” value (IMI + 3 mg/kg, D15) was 1.4 ± 0.2 and the “Mean scores of the presence of peeling” value (IMI + 3 mg/kg, D15) was 1.3 ± 0.3. The “Mean scores of the presence of erythema” value [3] was 2.1 ± 0.1, the “Mean scores of the presence of induration on the skin of animals at the area of induction of psoriasis” value [3] was 2.8 ± 0.2 and the “Mean scores of the presence of peeling” value [3] was 2.4 ± 0.3. The “Mean scores of the presence of erythema” value (IMI + 10 mg/kg, D9) was 1.5 ± 0.2, the “Mean scores of the presence of induration on the skin of animals at the area of induction of psoriasis” value (IMI + 10 mg/kg, D9) was 2.0 ± 0.2 and the “Mean scores of the presence of peeling” value (IMI + 10 mg/kg, D9) was 2.1 ± 0.2. The “Mean scores of the presence of erythema” value (IMI + 10 mg/kg, D10) was 1.8 ± 0.2, the “Mean scores of the presence of induration on the skin of animals at the area of induction of psoriasis” value (IMI + 10 mg/kg, D10) was 2.1 ± 0.2 and the “Mean scores of the presence of peeling” value (IMI + 10 mg/kg, D10) was 2.0 ± 0.3. For the same compound, the “Mean scores of the presence of erythema” value (IMI + 10 mg/kg, D11) was 1.5 ± 0.2, the “Mean scores of the presence of induration on the skin of animals at the area of induction of psoriasis” value (IMI + 10 mg/kg, D11) was 1.5 ± 0.2 and the “Mean scores of the presence of peeling” value (IMI + 10 mg/kg, D11) was 1.9 ± 0.1. The “Mean scores of the presence of erythema” value (IMI + 10 mg/kg, D12) was 0.9 ± 0.3, the “Mean scores of the presence of induration on the skin of animals at the area of induction of psoriasis” value (IMI + 10 mg/kg, D12) was 1.1 ± 0.1 and the “Mean scores of the presence of peeling” value (IMI + 10 mg/kg, D12) was 1.0 ± 0.2. The “Mean scores of the presence of erythema” value (IMI + 10 mg/kg, D13) was 0.6 ± 0.3, the “Mean scores of the presence of induration on the skin of animals at the area of induction of psoriasis” value (IMI + 10 mg/kg, D13) was 1.0 ± 0.0 and the “Mean scores of the presence of peeling” value (IMI + 10 mg/kg, D13) was 0.4 ± 0.2. For the same compound, the “Mean scores of the presence of erythema” value (IMI + 10 mg/kg, D14) was 0.1 ± 0.1, the “Mean scores of the presence of induration on the skin of animals at the area of induction of psoriasis” value (IMI + 10 mg/kg, D14) was 0.6 ± 0.2 and the “Mean scores of the presence of peeling” value (IMI + 10 mg/kg, D14) was 0.5 ± 0.2. For the same compound, the “Mean scores of the presence of erythema” value (IMI + 10 mg/kg, D15) was 0.1 ± 0.1, the “Mean scores of the presence of induration on the skin of animals at the area of induction of psoriasis” value (IMI + 10 mg/kg, D15) was 0.4 ± 0.2 and the “Mean scores of the presence of peeling” value (IMI + 10 mg/kg, D15) was 0.4 ± 0.2. For the same compound, the “Mean PASI Scores in IMI-Psoriasis Model” value (mice, IMI + 1 mg/kg, D8 (before start of treatment)) was 7.0 ± 0.3, the “Mean PASI Scores in IMI-Psoriasis Model” value (mice, IMI + 1 mg/kg, D9) was 6.8 ± 0.6 and the “Mean PASI Scores in IMI-Psoriasis Model” value (mice, IMI + 1 mg/kg, D10) was 6.0 ± 0.3. The “Mean PASI Scores in IMI-Psoriasis Model” value (mice, IMI + 1 mg/kg, D11) was 6.5 ± 0.5, the “Mean PASI Scores in IMI-Psoriasis Model” value (mice, IMI + 1 mg/kg, D12) was 5.6 ± 0.3 and the “Mean PASI Scores in IMI-Psoriasis Model” value (mice, IMI + 1 mg/kg, D13) was 5.6 ± 0.5. For the same compound, the “Mean PASI Scores in IMI-Psoriasis Model” value (mice, IMI + 1 mg/kg, D14) was 5.6 ± 0.4, the “Mean PASI Scores in IMI-Psoriasis Model” value (mice, IMI + 1 mg/kg, D15) was 5.1 ± 0.4 and the “Mean PASI Scores in IMI-Psoriasis Model” value (mice, IMI + 3 mg/kg, D8 (before start of treatment)) was 7.4 ± 0.3. The “Mean PASI Scores in IMI-Psoriasis Model” value (mice, IMI + 3 mg/kg, D9) was 6.0 ± 0.4, the “Mean PASI Scores in IMI-Psoriasis Model” value (mice, IMI + 3 mg/kg, D10) was 5.8 ± 0.4 and the “Mean PASI Scores in IMI-Psoriasis Model” value (mice, IMI + 3 mg/kg, D11) was 5.4 ± 0.3. The “Mean PASI Scores in IMI-Psoriasis Model” value (mice, IMI + 3 mg/kg, D12) was 5.4 ± 0.3, the “Mean PASI Scores in IMI-Psoriasis Model” value (mice, IMI + 3 mg/kg, D13) was 5.0 ± 0.4 and the “Mean PASI Scores in IMI-Psoriasis Model” value (mice, IMI + 3 mg/kg, D14) was 4.6 ± 0.4. For the same compound, the “Mean PASI Scores in IMI-Psoriasis Model” value (mice, IMI + 3 mg/kg, D15) was 3.5 ± 0.5, the “Mean PASI Scores in IMI-Psoriasis Model” value (mice, IMI + 10 mg/kg, D8 (before start of treatment)) was 7.3 ± 0.4 and the “Mean PASI Scores in IMI-Psoriasis Model” value (mice, IMI + 10 mg/kg, D9) was 5.6 ± 0.4. The “Mean PASI Scores in IMI-Psoriasis Model” value (mice, IMI + 10 mg/kg, D10) was 5.9 ± 0.5, the “Mean PASI Scores in IMI-Psoriasis Model” value (mice, IMI + 10 mg/kg, D11) was 4.9 ± 0.3 and the “Mean PASI Scores in IMI-Psoriasis Model” value (mice, IMI + 10 mg/kg, D12) was 3.1 ± 0.5. For the same compound, the “Mean PASI Scores in IMI-Psoriasis Model” value (mice, IMI + 10 mg/kg, D13) was 2.0 ± 0.4, the “Mean PASI Scores in IMI-Psoriasis Model” value (mice, IMI + 10 mg/kg, D14) was 1.3 ± 0.3 and the “Mean PASI Scores in IMI-Psoriasis Model” value (mice, IMI + 10 mg/kg, D15) was 0.9 ± 0.4. For the same compound, the “erythema, induration and peeling of the skin at the area of induction” value (mouse, in vivo) was “significantly reduced” and the “use of enrichment (nesting)” value (relative to vehicle-treated psoriasis animals) was “similarly restored use of nesting”.
